In article PMC6433685, “Histone deacetylase inhibitor LMK235 attenuates vascular constriction and aortic remodelling in hypertension” (Journal of Cellular and Molecular Medicine, 2019):

How the values were obtained:
[1] = tested on: bisphenol A‐induced hypertension; parameters: method as in PMID 25103225; settings: cited from earlier work
rat mesenteric arteries = test: Isometric tension: relaxation of U46619-induced contraction in rat mesenteric artery rings; parameters: species or system Sprague‐Dawley rats; settings: mesenteric artery rings pretreated with 100 μmol/L for 30 minutes
Description: Male Sprague‐Dawley rats were purchased from Orient Bio (Gyeonggi‐do, South Korea). The thoracic aortas and mesenteric arteries were excised and immersed in an ice‐cold, modified Krebs solution composed of NaCl (115 mmol/L), KCl (4.7 mmol/L), CaCl2 (2.5 mmol/L), MgCl2 (1.2 mmol/L), NaHCO3 (25 mmol/L), KH2PO4 (1.2 mmol/L) and dextrose (10 mmol/L). Mesenteric arteries are secondary branches of the main mesenteric trunk. The aortas and mesenteric arteries were cleaned by removing adherent connective tissue, soaked in the Krebs‐bicarbonate solution and cut into four ring segments (3.5 mm in length), as described previously.14 Some rings were denuded of endothelium by gently rubbing the internal surface with the edge of the forceps. Each aortic ring was suspended in a water‐jacketed organ bath (6 mL) maintained at 37°C and aerated with a mixture of 95% O2 and 5% CO2. Each ring was connected to an isometric force transducer (Danish Myo Technology, Skejbyparken, Aarhus N, Denmark). Rings were stretched to an optimal resting tension of 2.0 g, which was maintained throughout the experiment. Each ring was equilibrated in the organ bath solution for 90 minutes before the experiment involving the contractile response to 50 mmol/L of KCl addition. […]

HUVECs = test: Nitric oxide production in HUVECs (DAF-FM DA fluorescence); type: cell-based, Human; settings: 250 μmol/L, 24 h
Method: A10 vascular smooth muscle cells (VSMCs) were incubated with Dulbecco's modified Eagle medium (DMEM) with 4500 mg/L glucose containing 10% foetal bovine serum (FBS). Passages were carried out every 2 or 3 days. VSMCs were maintained in DMEM in the presence of 10% FBS with low glucose (1000 mg/L). Human umbilical vein endothelial cells (HUVECs) were obtained from Gibco (Waltham, MA, USA). HUVECs were grown in an endothelial cell basal medium (EBM) with EGM‐2 bullet kit (Lonza, Walkersville, MD) and maintained at 37°C under 5% CO2. Cells were cultured for 5‐7 passages.
We used a nitric oxide‐sensitive fluorescence probe, 4‐amino‐5‐methylamino‐2′,7′‐difluorescein diacetate (DAF‐FM DA, Cayman), for nitric oxide detection. HUVECs were seeded on coverslips in 12‐well plates (1.5 × 10^5/mL). Cells, serum‐starved with EBM for 16 hour, were treated with LMK235 (1 μmol/L) or L‐NAME (250 μmol/L) for 24 hour and incubated with DAF‐FM DA (2.5 μmol/L) for 45 minutes. Next, the cells were fixed with 70% ethanol for 45 minutes and mounted using Prolog Gold antifade reagent and DAPI (Invitrogen, USA).

[2] = tested on: angiotensin II‐induced hypertensive mice; settings: cited from earlier work; for elevated BP: angiotensin II-induced hypertensive mice
SHRs = settings: cited from earlier work

COc1ccc(S(=O)(=O)N(CCO)c2ccccc2CN(C)C/C=C/c2ccc(Cl)cc2)cc1 [KN 93]
bisphenol A-induced hypertension [1]: inhibit

COC(=O)[C@@H](N)CCCNC(N)=N[N+](=O)[O-] [L‐NAME, reference compound]
LMK235-induced vascular relaxation (rat mesenteric arteries): inhibited vascular relaxation
LMK235-induced increase of nitric oxide production (HUVECs): reduced

Cn1c(/C=C/C(=O)NO)ccc1/C=C/C(=O)c1cccc(F)c1 [MC1568]
vascular hypertrophy and hyperplasia ([2]; angiotensin II-induced hypertensive mice and VSMCs): attenuates
elevated BP [2]: lowered elevated BP

CC(/C=C/C(=O)NO)=C\[C@@H](C)C(=O)c1ccc(N(C)C)cc1 [TSA, Trichostatin A]
augmented angiotensin II-induced contraction in the mesenteric artery (SHRs; SHRs): reversed
systolic BP (SHRs; SHRs): decreased systolic BP

CN1CCc2c(c3ccccc3n2Cc2ccc(C(=O)NO)cc2)C1 [tubastatin A]
elevated BP [2]: not

CCCC(CCC)C(=O)O [valproic acid]
BP (SHRs; SHRs or DOCA-salt-induced hypertensive rats): attenuated BP
cardiac AT1 mRNA levels (SHRs; SHRs): reduced
